Experimental data published in patent publication US20070117770A1, “Human ribosomal DNA (rDNA) and ribosomal RNA (rRNA) nucleic acids and uses thereof” (Cylene Pharmaceuticals, Inc., priority 2005, published 2007).

How the values were obtained:
Experiment in all cases: Protein kinase inhibition assay
Format in all cases: biochemical
FGFR1(h) = FGFR1(h) (Homo sapiens, UniProt P11362); conditions: read-out: percent residual activity of FGFR1(h)
Method: (§1) Certain compounds were tested for activity in protein kinase inhibition assays. All substrates were dissolved and diluted to working stocks in de-ionized water, apart from histone H1 (10× working stock in 20 mM MOPS pH 7.0), PDKtide (10× working stock in 50 mM Tris pH 7.0) ATF2 (which is typically stored at a 20× working stock in 50 mM Tris pH 7.5, 150 mM NaCl, 0.1 mM EGTA, 0.03% Brij-35, 50% glycerol, 1 mM benzamidine, 0.2 mM PMSF and 0.1% R-mercaptoethanol), KKLNRTLSFAEPG (SEQ ID NO:203) and RRRLSFAEPG (SEQ ID NO:204) (50 mM HEPES pH 7.4) and GGEEEEYFELVKKKK (SEQ ID NO:205) (20 mM MOPS pH 7.0). All kinases were pre-diluted to a 10× working concentration prior to addition into the assay. The composition of the dilution buffer for each kinase is detailed below.
(§2) In a final reaction volume of 25 μl, FGFR1 (h) (5-10 mU) is incubated with 8 mM MOPS pH 7.0, 0.2 mM EDTA, 250 μM KKKSPGEYVNIEFG (SEQ ID NO:207), 10 mM MgAcetate and [y-33P-ATP] (specific activity approx. 500 cpm/pmol, concentration as required). The reaction is initiated by the addition of the MGATP mix. After incubation for 40 minutes at room temperature, the reaction is stopped by the addition of 5 μl of a 3% phosphoric acid solution. 10 μl of the reaction is then spotted onto a P30 filtermat and washed three times for 5 minutes in 75 mM phosphoric acid and once in methanol prior to drying and scintillation counting.

BRK(h) = BRK(h) (Homo sapiens, UniProt Q13882); conditions: read-out: percent residual activity of BRK(h)
BRK(h), sequence (Q13882 whole entry): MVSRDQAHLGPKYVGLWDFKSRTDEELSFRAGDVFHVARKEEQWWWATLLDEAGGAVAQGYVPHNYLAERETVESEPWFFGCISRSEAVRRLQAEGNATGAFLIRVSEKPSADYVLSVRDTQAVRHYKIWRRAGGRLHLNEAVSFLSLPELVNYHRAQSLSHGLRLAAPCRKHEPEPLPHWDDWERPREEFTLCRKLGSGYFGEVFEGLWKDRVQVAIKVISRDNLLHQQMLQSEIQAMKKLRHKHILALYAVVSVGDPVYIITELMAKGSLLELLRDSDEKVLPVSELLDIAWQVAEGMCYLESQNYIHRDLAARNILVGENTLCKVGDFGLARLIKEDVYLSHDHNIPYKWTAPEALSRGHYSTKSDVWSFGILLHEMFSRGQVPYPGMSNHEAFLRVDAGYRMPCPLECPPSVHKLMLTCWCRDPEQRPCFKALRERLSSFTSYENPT
Method: as §1
as §2, with “BRK” for “FGFR1”, “5 mM MnCl2, 0.1 mg/ml poly (Glu, Tyr) 4:1,” for “250 μM KKKSPGEYVNIEFG (SEQ ID NO:207),”, “[gamma-33P-ATP]” for “[y-33P-ATP]”, “MgATP” for “MGATP”, “Filtermat A” for “P30 filtermat”

PDGFRα(h) = PDGFRα(h) (Homo sapiens, UniProt P16234); conditions: read-out: percent residual activity of PDGFRα(h)
Method: as §1
as §2, with “PDGFRα” for “FGFR1”, “0.1 mg/ml poly(Glu, Tyr) 4:1, 10 mM MnCl2,” for “250 μM KKKSPGEYVNIEFG (SEQ ID NO:207),”, “[gamma-33P-ATP]” for “[y-33P-ATP]”, “MgATP” for “MGATP”, “Filtermat A” for “P30 filtermat”

NEK2(h) = NEK2(h) (Homo sapiens, UniProt P51955); conditions: read-out: percent residual activity of NEK2(h)
NEK2(h), sequence (P51955 whole entry): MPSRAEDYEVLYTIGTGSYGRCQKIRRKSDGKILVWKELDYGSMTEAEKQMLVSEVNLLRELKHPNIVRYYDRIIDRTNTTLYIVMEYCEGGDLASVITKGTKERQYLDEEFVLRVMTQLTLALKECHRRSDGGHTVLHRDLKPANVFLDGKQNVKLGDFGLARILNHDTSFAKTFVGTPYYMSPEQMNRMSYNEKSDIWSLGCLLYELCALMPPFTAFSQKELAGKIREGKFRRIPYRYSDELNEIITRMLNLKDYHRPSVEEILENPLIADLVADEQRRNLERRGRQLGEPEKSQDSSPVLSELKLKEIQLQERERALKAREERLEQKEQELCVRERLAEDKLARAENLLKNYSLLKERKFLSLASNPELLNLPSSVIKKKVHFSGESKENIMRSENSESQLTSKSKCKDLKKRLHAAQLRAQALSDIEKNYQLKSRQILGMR
Method: as §1
as §2, with “NEK2” for “FGFR1”, “0.33 mg/ml myelin basic protein,” for “250 μM KKKSPGEYVNIEFG (SEQ ID NO:207),”, “[gamma-33P-ATP]” for “[y-33P-ATP]”, “MgATP” for “MGATP”

MINK(h) = MINK(h) (Homo sapiens, UniProt Q8N4C8); conditions: read-out: percent residual activity of MINK(h)
MINK(h), sequence (Q8N4C8 whole entry): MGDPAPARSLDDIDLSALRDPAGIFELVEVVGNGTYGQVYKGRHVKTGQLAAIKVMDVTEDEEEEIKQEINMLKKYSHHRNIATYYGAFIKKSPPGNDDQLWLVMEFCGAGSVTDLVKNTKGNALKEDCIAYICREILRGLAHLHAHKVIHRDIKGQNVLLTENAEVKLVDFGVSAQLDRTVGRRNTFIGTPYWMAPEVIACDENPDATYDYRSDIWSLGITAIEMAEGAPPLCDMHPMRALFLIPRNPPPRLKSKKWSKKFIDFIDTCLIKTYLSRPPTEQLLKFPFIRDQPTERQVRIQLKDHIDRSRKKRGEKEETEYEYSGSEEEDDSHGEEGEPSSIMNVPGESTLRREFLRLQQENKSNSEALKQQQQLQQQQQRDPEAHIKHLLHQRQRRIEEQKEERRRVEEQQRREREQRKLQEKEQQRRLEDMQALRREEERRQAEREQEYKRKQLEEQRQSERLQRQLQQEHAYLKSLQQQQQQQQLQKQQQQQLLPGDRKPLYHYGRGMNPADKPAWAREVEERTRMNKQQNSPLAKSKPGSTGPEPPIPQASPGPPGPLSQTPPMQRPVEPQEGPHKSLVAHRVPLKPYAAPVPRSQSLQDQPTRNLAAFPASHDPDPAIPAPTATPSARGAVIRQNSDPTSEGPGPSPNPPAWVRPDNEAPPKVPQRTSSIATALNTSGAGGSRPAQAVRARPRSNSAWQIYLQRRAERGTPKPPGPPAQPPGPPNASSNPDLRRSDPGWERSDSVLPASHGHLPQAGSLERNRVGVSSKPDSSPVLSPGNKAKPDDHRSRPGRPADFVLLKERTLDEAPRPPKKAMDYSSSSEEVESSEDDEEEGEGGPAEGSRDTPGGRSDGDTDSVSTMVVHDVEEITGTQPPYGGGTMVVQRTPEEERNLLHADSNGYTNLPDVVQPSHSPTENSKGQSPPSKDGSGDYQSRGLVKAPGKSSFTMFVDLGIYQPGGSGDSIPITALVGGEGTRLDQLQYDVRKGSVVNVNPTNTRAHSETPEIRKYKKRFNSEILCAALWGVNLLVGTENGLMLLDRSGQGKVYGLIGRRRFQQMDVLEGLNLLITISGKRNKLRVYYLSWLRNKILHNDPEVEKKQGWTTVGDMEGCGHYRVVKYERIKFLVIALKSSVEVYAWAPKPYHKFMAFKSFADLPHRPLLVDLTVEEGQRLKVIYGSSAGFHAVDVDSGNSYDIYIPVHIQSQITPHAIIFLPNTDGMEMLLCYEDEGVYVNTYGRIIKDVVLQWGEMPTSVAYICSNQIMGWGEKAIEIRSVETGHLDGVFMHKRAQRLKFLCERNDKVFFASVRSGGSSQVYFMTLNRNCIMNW
Method: as §1
as §2, with “MINK” for “FGFR1”, “0.33 mg/ml myelin basic protein,” for “250 μM KKKSPGEYVNIEFG (SEQ ID NO:207),”, “[gamma-33P-ATP]” for “[y-33P-ATP]”, “MgATP” for “MGATP”

HIPK2(h) = HIPK2(h) (Homo sapiens, UniProt Q9H2X6); conditions: read-out: percent residual activity of HIPK2(h)
HIPK2(h), sequence (Q9H2X6 whole entry): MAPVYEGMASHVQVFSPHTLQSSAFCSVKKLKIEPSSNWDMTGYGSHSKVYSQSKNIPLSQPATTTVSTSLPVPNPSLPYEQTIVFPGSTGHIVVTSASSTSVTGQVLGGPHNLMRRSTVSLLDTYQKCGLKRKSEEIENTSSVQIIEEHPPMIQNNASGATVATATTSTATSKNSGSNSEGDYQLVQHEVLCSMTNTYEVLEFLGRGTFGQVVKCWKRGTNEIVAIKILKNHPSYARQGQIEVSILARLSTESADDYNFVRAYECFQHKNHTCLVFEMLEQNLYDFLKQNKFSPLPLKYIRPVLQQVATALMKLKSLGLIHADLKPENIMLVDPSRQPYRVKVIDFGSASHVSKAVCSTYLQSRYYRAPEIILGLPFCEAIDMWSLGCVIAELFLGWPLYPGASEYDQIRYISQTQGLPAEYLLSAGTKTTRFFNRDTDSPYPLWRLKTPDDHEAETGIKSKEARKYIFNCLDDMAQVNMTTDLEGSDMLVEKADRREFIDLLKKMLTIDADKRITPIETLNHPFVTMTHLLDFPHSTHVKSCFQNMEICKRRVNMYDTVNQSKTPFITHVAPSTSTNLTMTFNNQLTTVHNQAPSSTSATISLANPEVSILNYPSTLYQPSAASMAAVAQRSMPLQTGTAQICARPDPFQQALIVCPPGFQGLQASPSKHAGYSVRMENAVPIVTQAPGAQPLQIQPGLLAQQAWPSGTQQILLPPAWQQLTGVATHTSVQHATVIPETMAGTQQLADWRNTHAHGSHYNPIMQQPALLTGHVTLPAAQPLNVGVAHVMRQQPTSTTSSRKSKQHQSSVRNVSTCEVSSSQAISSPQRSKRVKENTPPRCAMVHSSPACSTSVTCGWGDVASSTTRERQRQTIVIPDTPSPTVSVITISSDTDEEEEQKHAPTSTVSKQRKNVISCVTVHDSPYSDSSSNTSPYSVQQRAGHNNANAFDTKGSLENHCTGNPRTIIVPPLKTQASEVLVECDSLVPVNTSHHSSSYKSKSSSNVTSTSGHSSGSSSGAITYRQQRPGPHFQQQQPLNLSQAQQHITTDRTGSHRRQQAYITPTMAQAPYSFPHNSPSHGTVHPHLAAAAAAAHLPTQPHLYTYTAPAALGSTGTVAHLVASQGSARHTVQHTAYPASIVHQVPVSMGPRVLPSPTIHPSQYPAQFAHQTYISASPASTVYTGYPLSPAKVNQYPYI
Method: as §1
as §2, with “HIPK2” for “FGFR1”, “0.33 mg/ml myelin basic protein,” for “250 μM KKKSPGEYVNIEFG (SEQ ID NO:207),”, “[gamma-33P-ATP]” for “[y-33P-ATP]”, “MgATP” for “MGATP”, “filtermat” for “filtermat and”

FGFR1(h), sequence (P11362 22-822): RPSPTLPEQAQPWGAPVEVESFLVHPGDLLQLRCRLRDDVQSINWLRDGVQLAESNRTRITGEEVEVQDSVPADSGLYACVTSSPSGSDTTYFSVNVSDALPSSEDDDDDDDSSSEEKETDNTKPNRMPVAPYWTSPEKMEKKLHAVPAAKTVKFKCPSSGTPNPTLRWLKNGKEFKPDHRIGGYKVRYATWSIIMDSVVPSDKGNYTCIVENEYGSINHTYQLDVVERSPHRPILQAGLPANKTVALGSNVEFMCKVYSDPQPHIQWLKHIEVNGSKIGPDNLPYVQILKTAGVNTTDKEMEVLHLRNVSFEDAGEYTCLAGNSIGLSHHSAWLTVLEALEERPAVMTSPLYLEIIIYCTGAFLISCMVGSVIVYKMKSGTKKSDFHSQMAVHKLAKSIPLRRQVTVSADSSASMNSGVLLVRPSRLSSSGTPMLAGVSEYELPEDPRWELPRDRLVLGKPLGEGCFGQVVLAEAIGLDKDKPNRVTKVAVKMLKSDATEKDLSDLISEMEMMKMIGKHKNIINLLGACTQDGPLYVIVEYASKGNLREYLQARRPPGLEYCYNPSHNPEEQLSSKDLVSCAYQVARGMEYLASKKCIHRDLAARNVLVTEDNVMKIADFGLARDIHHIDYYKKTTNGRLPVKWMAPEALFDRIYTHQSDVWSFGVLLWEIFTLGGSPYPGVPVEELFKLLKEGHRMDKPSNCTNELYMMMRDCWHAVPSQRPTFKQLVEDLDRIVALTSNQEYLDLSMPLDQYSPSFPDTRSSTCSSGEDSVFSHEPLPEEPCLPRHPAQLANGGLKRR

remaining activity at 2.5 µM (FGFR1(h)) | remaining activity at 2.5 µM (BRK(h)) | remaining activity at 2.5 µM (PDGFRα(h)) | remaining activity at 2.5 µM (NEK2(h)) | remaining activity at 2.5 µM (MINK(h)) | remaining activity at 2.5 µM (HIPK2(h)) | Compound
84% | 131% | 108% | 65% | 72% | 106% | CN1CCCC1CCNC(=O)c1cn2c3c(c(N4CCC(c5cnccn5)C4)c(F)cc3c1=O)Oc1cc3ccccc3cc1-2 (stereo not drawn) [Compound A-1]
118% | 98% | 106% | 106% | 97% | 111% | CC(=O)N1CCN(c2ccc3c(=O)c(C(=O)NCCN4CCCC4)c4n(C)c5ccccc5n4c3n2)CC1 [Compound B-1]
